Values belong to the compound of their own block, whether it stands above or below them.
Experiments:
Assay type in all cases: cell-based
Settings in all cases: filed as activator
[1] = biological target: T1, Nuclear factor NF-kappa-B complex (Homo sapiens) (UniProt Q00653+P19838+Q04206); assay: Activation of NF-KappaB in HEK293T cells assessed as fold change
[2] = biological target: T1, Nuclear factor NF-kappa-B complex (Homo sapiens); assay: Activation of NF-KappaB (unknown origin) expressed in HEK293T cells assessed as fold change at 10 ng incubated for 12 hrs by Renilla luciferase assay
[3] = biological target: T1, Nuclear factor NF-kappa-B complex (Homo sapiens); assay: Activation of NF-KappaB (unknown origin) expressed in HEK293T cells assessed as fold change at 100 ng incubated for 12 hrs by Renilla luciferase assay
[4] = biological target: T1, Nuclear factor NF-kappa-B complex (Homo sapiens); assay: Activation of NF-KappaB (unknown origin) expressed in HEK293T cells assessed as fold change at 1000 ng incubated for 12 hrs by Renilla luciferase assay
[5] = biological target: Nucleotide-binding oligomerization domain-containing protein 2 (Homo sapiens, UniProt Q9HC29); assay: Activation of NOD2 in HEK293T cells
Sequence of Nucleotide-binding oligomerization domain-containing protein 2 (Q9HC29 whole entry, the tested form may be a part): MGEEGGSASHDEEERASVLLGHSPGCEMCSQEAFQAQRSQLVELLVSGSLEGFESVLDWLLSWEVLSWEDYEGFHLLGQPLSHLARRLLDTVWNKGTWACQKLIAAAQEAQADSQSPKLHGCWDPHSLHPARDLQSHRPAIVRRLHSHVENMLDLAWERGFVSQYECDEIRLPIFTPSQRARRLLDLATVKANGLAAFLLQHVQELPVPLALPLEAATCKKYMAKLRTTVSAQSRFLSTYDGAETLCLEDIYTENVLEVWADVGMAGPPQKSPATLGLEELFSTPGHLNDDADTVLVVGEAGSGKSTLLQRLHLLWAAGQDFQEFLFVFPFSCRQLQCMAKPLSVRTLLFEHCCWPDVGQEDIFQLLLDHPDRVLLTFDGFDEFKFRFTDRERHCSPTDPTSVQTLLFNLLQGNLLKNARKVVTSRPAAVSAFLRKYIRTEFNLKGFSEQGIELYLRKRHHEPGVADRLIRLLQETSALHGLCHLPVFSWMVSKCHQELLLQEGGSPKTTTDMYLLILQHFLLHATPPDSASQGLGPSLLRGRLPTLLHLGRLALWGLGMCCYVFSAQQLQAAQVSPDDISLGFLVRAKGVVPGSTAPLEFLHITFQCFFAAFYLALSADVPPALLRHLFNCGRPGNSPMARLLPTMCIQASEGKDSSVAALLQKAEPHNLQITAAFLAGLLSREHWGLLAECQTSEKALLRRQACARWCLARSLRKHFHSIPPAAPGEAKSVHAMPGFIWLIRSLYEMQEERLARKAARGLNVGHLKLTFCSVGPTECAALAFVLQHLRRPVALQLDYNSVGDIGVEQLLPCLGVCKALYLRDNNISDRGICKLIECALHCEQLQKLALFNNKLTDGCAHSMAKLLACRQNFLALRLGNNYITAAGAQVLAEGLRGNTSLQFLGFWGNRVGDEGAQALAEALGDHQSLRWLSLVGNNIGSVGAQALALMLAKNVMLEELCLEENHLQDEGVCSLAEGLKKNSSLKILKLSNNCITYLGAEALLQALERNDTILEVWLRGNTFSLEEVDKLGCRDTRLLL

[6] = biological target: T1, Nuclear factor NF-kappa-B complex (Homo sapiens); assay: Activation of NF-kappaB in HEK-Blue hNOD2 cells assessed as fold change at 10 nM incubated for 48 hrs by SEAP reporter assay
[7] = biological target: T1, Nuclear factor NF-kappa-B complex (Homo sapiens); assay: Activation of NF-kappaB in HEK-Blue hNOD2 cells assessed as fold change at 100 nM incubated for 48 hrs by SEAP reporter assay
[8] = biological target: T1, Nuclear factor NF-kappa-B complex (Homo sapiens); assay: Activation of NF-kappaB in HEK-Blue hNOD2 cells assessed as fold change at 1000 nM incubated for 48 hrs by SEAP reporter assay

T1 sequence (P19838 whole entry, looked up): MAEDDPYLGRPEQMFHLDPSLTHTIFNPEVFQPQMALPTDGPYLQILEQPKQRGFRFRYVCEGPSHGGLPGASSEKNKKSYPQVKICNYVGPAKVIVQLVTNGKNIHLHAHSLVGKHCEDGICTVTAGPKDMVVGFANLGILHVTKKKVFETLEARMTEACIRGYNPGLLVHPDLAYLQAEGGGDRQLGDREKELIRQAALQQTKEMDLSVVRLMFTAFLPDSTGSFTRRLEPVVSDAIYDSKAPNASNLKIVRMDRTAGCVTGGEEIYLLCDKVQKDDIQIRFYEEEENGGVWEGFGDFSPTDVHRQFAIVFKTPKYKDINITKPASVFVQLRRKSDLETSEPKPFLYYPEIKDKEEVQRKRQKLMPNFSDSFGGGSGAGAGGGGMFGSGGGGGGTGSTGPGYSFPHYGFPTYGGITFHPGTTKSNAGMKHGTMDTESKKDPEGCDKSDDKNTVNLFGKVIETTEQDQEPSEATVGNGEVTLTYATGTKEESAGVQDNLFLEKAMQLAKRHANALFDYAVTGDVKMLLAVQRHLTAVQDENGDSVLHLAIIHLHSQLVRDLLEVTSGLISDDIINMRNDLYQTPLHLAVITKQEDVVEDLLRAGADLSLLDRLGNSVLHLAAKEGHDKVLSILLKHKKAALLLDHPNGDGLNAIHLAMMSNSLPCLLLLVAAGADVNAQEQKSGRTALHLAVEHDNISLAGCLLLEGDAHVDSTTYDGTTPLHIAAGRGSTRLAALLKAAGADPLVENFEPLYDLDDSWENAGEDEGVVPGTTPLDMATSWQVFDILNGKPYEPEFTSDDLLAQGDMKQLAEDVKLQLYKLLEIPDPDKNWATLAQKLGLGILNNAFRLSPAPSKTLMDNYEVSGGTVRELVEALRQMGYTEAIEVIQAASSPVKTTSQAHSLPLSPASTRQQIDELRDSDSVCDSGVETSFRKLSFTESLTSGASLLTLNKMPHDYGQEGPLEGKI
T1 sequence (Q00653 whole entry, looked up): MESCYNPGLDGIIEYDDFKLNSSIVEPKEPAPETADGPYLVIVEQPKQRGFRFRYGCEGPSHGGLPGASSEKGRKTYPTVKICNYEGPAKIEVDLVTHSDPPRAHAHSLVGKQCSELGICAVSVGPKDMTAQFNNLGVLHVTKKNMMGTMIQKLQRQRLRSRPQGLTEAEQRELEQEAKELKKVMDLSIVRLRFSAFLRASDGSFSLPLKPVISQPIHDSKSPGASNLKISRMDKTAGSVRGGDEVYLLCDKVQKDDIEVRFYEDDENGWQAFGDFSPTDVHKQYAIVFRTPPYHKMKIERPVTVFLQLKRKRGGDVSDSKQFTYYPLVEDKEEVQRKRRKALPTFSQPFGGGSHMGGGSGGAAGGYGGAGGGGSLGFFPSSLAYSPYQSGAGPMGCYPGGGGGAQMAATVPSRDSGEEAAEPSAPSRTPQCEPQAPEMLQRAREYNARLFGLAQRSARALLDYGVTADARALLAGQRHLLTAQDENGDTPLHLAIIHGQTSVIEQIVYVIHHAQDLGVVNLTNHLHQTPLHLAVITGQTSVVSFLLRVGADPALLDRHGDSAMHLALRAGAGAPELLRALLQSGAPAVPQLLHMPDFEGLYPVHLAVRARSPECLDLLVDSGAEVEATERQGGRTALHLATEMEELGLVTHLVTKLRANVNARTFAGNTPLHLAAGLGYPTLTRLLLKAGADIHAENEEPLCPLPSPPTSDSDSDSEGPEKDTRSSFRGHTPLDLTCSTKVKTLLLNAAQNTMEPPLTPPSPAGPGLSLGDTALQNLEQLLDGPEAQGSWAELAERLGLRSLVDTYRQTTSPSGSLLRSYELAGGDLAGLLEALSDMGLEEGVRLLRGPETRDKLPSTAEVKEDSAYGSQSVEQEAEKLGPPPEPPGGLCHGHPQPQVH
T1 sequence (Q04206 whole entry, looked up): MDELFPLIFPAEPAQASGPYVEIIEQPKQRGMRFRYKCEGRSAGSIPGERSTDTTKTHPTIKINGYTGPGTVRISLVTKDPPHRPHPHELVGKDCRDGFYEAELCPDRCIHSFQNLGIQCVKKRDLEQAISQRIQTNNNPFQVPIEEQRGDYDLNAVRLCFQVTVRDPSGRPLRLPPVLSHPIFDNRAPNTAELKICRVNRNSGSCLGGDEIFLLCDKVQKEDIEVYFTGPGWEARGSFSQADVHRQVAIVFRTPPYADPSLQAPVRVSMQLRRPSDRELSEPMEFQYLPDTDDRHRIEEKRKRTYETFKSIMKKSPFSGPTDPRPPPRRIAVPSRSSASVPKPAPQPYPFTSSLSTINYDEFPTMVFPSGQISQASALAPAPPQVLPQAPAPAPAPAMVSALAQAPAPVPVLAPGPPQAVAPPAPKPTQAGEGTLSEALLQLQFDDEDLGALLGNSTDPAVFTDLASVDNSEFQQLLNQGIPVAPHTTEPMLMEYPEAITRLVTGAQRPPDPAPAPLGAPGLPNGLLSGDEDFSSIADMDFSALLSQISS

Compound: CC(=O)N[C@@H]1[C@@H](O[C@H](C)C(=O)N[C@@H](C)C(=O)N[C@H](CCC(=O)O)C(N)=O)[C@H](O)[C@@H](CNC(=O)CCOCCOCCOCCOCCNC(=O)CCCC[C@@H]2SC[C@@H]3NC(=O)N[C@@H]32)O[C@H]1O
fold change (FC) [1]: 9.45

Compound: CC(=O)N[C@@H]1[C@@H](O)[C@H](O[C@@H]2O[C@H](CO)[C@@H](O)[C@H](O[C@H](C)C(=O)N[C@@H](C)C(=O)N[C@H](CCC(=O)N[C@@H](CCCCN)C(=O)O)C(N)=O)[C@H]2NC(C)=O)[C@@H](CO)O[C@H]1O
Activity [5]: 100 mU

Compound: CNCc1cn([C@H]2[C@H](O[C@H](C)C(=O)N[C@@H](C)C(=O)N[C@H](CCC(=O)O)C(N)=O)[C@@H](NC(C)=O)[C@H](O)O[C@@H]2CO)nn1
fold change (FC) [6]: 1.1 | fold change (FC) [7]: 1.05 | fold change (FC) [8]: 1

Compound: COc1cccc(-c2cn([C@H]3[C@H](O[C@H](C)C(=O)N[C@@H](C)C(=O)N[C@H](CCC(=O)O)C(N)=O)[C@@H](NC(C)=O)[C@H](O)O[C@@H]3CO)nn2)c1
fold change (FC) [6]: 1.1 | fold change (FC) [7]: 1.05 | fold change (FC) [8]: 1

Compound: CCO[C@@H]1O[C@H](CO)[C@@H](O[C@@H]2O[C@H](CO)[C@@H](O[C@@H]3O[C@H](CO)[C@@H](O[C@@H]4O[C@H](CO)[C@@H](O)[C@H](O[C@H](C)C(=O)N[C@@H](C)C(=O)N[C@H](CCC(=O)N[C@@H](CCCCN)C(=O)O)C(N)=O)[C@H]4NC(C)=O)[C@H](O)[C@H]3NC(C)=O)[C@H](O)[C@H]2NC(C)=O)[C@H](O[C@H](C)C(=O)N[C@@H](C)C(=O)N[C@H](CCC(=O)N[C@@H](CCCCN)C(=O)O)C(N)=O)[C@H]1NC(C)=O
Activity [5]: 0.5 mU

Compound: CC(=O)N[C@@H]1[C@@H](O[C@H](C)C(=O)N[C@@H](C)C(=O)N[C@H](CCC(=O)O)C(N)=O)[C@H](n2cc(CNC(=O)Cc3ccc(C(F)(F)F)cc3)nn2)[C@@H](CO)O[C@H]1O
fold change (FC) [6]: 1.15 | fold change (FC) [7]: 1.1 | fold change (FC) [8]: 1.35

Compound: CCO[C@@H]1O[C@H](CO)[C@@H](O[C@@H]2O[C@H](CO)[C@@H](O[C@@H]3O[C@H](CO)[C@@H](O[C@@H]4O[C@H](CO)[C@@H](O)[C@H](O[C@H](C)C(=O)N[C@@H](C)C(=O)N[C@H](CCC(=O)N[C@@H](CCCCN)C(=O)N[C@H](C)C(=O)N[C@H](C)C(=O)O)C(N)=O)[C@H]4NC(C)=O)[C@H](O)[C@H]3NC(C)=O)[C@H](O[C@H](C)C(=O)N[C@@H](C)C(=O)N[C@H](CCC(=O)N[C@@H](CCCCN)C(=O)N[C@H](C)C(=O)N[C@H](C)C(=O)O)C(N)=O)[C@H]2NC(C)=O)[C@H](O)[C@H]1NC(C)=O
Activity [5]: 12.5 mU

Compound: CC(=O)N[C@@H]1[C@@H](O[C@H](C)C(=O)N[C@@H](C)C(=O)N[C@@H](CCC(=O)O)C(N)=O)[C@H](O)[C@@H](CNC(=O)CCSSCCNC(=O)CCCC[C@@H]2SC[C@@H]3NC(=O)N[C@@H]32)O[C@H]1O
fold change (FC) [1]: 0.9

Compound: CC(=O)N[C@@H]1[C@@H](O[C@H](C)C(=O)N[C@H](CO)C(=O)N[C@H](CCC(=O)O)C(N)=O)[C@H](O)[C@@H](CO)O[C@H]1O
fold change (FC) [2]: 1.7 | fold change (FC) [3]: 1.05 | fold change (FC) [4]: 3.4

More lines, now with the values ahead:

fold change (FC) [2]: 1.3 | fold change (FC) [3]: 1 | fold change (FC) [4]: 1.6
Compound: CC(=O)N[C@@H]1[C@@H](O[C@H](C)C(=O)N[C@H](C)C(=O)N[C@H](CCC(=O)O)C(N)=O)[C@H](O)[C@@H](CO)O[C@H]1O

fold change (FC) [1]: 7.05
Compound: CC(=O)N[C@@H]1[C@@H](O[C@H](C)C(=O)N[C@@H](C)C(=O)N[C@H](CCC(=O)O)C(N)=O)[C@H](O)[C@@H](CNC(=O)CCSSCCNC(=O)CCCC[C@@H]2SC[C@@H]3NC(=O)N[C@@H]32)O[C@H]1O

fold change (FC) [6]: 1.1 | fold change (FC) [7]: 1.05 | fold change (FC) [8]: 1.2
Compound: COc1ccc(CC(=O)NCc2cn([C@H]3[C@H](O[C@H](C)C(=O)N[C@@H](C)C(=O)N[C@H](CCC(=O)O)C(N)=O)[C@@H](NC(C)=O)[C@H](OCc4ccccc4)O[C@@H]3CO)nn2)cc1

fold change (FC) [1]: 1.2
Compound: CC(=O)N[C@@H]1[C@@H](O[C@H](C)C(=O)N[C@@H](C)C(=O)N[C@@H](CCC(=O)O)C(N)=O)[C@H](O)[C@@H](CNC(=O)CCOCCOCCOCCOCCNC(=O)CCCC[C@@H]2SC[C@@H]3NC(=O)N[C@@H]32)O[C@H]1O

Activity [5]: 1000 mU
Compound: CC(=O)N[C@@H]1[C@@H](O[C@H](C)C(=O)N[C@@H](C)C(=O)N[C@H](CCC(=O)O)C(N)=O)[C@H](O[C@@H]2O[C@H](CO)[C@@H](O)[C@H](O)[C@H]2NC(C)=O)[C@@H](CO)O[C@H]1O

Activity [5]: 0.09 mU
Compound: CCO[C@@H]1O[C@H](CO)[C@@H](O[C@@H]2O[C@H](CO)[C@@H](O[C@@H]3O[C@H](CO)[C@@H](O[C@@H]4O[C@H](CO)[C@@H](O)[C@H](O[C@H](C)C(=O)N[C@@H](C)C(=O)N[C@H](CCC(=O)N[C@@H](CCCCN)C(=O)N[C@H](C)C(=O)O)C(N)=O)[C@H]4NC(C)=O)[C@H](O)[C@H]3NC(C)=O)[C@H](O)[C@H]2NC(C)=O)[C@H](O[C@H](C)C(=O)N[C@@H](C)C(=O)N[C@H](CCC(=O)N[C@@H](CCCCN)C(=O)N[C@H](C)C(=O)O)C(N)=O)[C@H]1NC(C)=O

Reference: ChEMBL document CHEMBL5550132, “Structure-activity relationship in NOD2 agonistic muramyl dipeptides” (Eur J Med Chem, 2024)
